# Assay results: patent US20250171428A1, “CRYSTALLINE FORMS OF 6-((5-METHYL-3-(6-METHYLPYRIDIN-3-YL)ISOXAZOL-4- YL)METHOXY)- N -(TETRAHYDRAPYRAN-4-YL)PYRIDAZINE-3-CARBOXAMIDE” (Hoffmann-La Roche Inc., priority 2022, published 2025)
# Key:
# Type in all cases: physicochemical
# [1] = Slurry of Form 4 in various solvents and solvent/water mixtures; conditions: 20° C. to 60° C.
# [2] = Transformation of Form 4 at elevated temperature; conditions: temperatures >110° C.
# [3] = Competing long-term slurry equilibration experiments including Form A and Form B; conditions: competing slurries of Form A and Form B, various solvents, 5° C. to 65° C.; all conditions tested
# Protocol: The competing long-term slurry equilibration experiments including Form A and Form B were performed in various solvents in the temperature range from 5° C. to 65° C.
SMILES,solid form transformation in slurry [1],solid form transformation on heating [2],stability of the crystalline form [3]
"Cc1ccc(-c2noc(C)c2COc2ccc(C(=O)NC3CCOCC3)nn2)cn1 [Form 4, 6-((5-methyl-3-(6-methylpyridin-3-yl)isoxazol-4-yl)methoxy)-N-(tetrahydropyran-4-yl)pyridazine-3-carboxamide]",transform to Form B,transform to Form A,
"Cc1ccc(-c2noc(C)c2COc2ccc(C(=O)NC3CCOCC3)nn2)cn1 [Form B, 6-((5-methyl-3-(6-methylpyridin-3-yl)isoxazol-4-yl)methoxy)-N-(tetrahydropyran-4-yl)pyridazine-3-carboxamide]",,,superior stability
